Data: publication PMC5584945, “Evaluation of robenidine analog NCL195 as a novel broad-spectrum antibacterial agent” (PLoS ONE, 2017)
Values after ≈ are worked out from the molar mass of the structure shown. Where two headings read alike, the source gives them in different places.

How the values were obtained:
[1] = system: vancomycin-resistant enterococci (VRE); test: MIC, broth micro-dilution (CLSI); format: cell-based, enterococci (porcine isolates); details: for MIC90 / MIC50 / MIC: Enterococcus, VRE
[2] = system: S. pneumoniae D39; test: Membrane potential, DiOC2(3) fluorescence; format: cell-based, Streptococcus pneumoniae; details: 16 μg/ml, pre-incubated 5 min; versus untreated and ampicillin
Description: To further examine the mechanism underlying the perturbation of the cell membrane of S. pneumoniae or S. aureus by the NCL compounds, the membrane potential of the cells was measured by fluorescence spectrometry using (DiOC2(3), essentially as described previously. Briefly, […] cells from an overnight HBA plate were grown in Todd-Hewitt broth supplemented with 1% yeast extract (THY) at 37°C, 5% CO2 until A600 nm = 0.5. […] The cuvette was then placed in a LS 55 Fluorescence Spectrometer (PerkinElmer) set at Ex. 488 nm/Em. 620 nm, with excitation and emission slit widths at 5 nm and 7 nm, respectively). […] All assays were performed at least twice.

[3] = Kinetic solubility by nephelometry; format: physicochemical; details: kinetic from dmso stock
[4] = Microsomal metabolic stability; format: in vitro ADME; details: for microsomal CLint at 0.4 μg/ml / half-life at 0.4 μg/ml: liver microsomes, pH 7.4; for microsomal CLint at 0.4 μg/ml: read-out: CLINT; for Predicted EH: hepatic extraction ratio; for Predicted CLblood: microsome-predicted; for half-life at 0.4 μg/ml: 0.4 μg/ml compound, 0.4 mg/ml protein, NADPH
Description: The metabolic stability assay was performed by incubating 0.4 μg/ml of each test compound with human and mouse liver microsomes (Xenotech, Lot# 1210057 and 1310211, respectively) suspended in 0.1 M pH 7.4 phosphate buffer at 37°C and 0.4 mg/ml protein concentration. The metabolic reaction was initiated by the addition of an NADPH-regenerating system (i.e. NADPH is the cofactor required for CYP450-mediated metabolism) and quenched at various time points over a 60 min incubation period by the addition of acetonitrile containing diazepam as internal standard. Control samples (containing no NADPH) were included (and quenched at 2, 30 and 60 min) to monitor for potential degradation in the absence of cofactor. Test compound concentration vs time data were fitted to an exponential decay function to determine the first-order rate constant for substrate depletion. This was used to calculate a degradation half-life (T1/2), in vitro intrinsic clearance (CLINT), microsome-predicted blood clearance (CLblood) and a microsome-predicted hepatic extraction ratio (EH) according to the in vitro half-life method of Obach[53].

[5] = system: MDBK; test: Real-time cell viability, RealTime-Glo MT; format: cell-based, bovine; details: 2 or 8 μg/ml, up to 20 h post-treatment
Description: (§1) In order to ensure minimal off target mammalian cell cytotoxicity, we assayed NCL812, NCL195 and NCL219 for in vitro cytotoxicity using a panel of adherent mammalian cell lines: Caco-2 (human colorectal adenocarcinoma cell line), HEL 299 (non-cancerous human lung fibroblast cell line), Hep G2 (human hepatocellular carcinoma cell line), MDBK (normal bovine kidney cell line) and MCF7 (human mammary gland adenocarcinoma cell line). Cell lines were maintained in Dulbecco’s Modified Eagle’s Medium (DMEM; […] After 24 h incubation, media was removed, washed once with medium without antibiotics and fresh medium supplemented with 10% (vol/vol) FBS was added. […] Following exposure for 24 h, WST-1 reagent was added to each well at a final concentration of 10%. […] The IC50 value for each compound against each cell line was determined via non-linear regression (three parameters) using GraphPad Prism v6 software. The robustness of assays was confirmed with selected cell lines (Hep G2 and MDBK) seeded onto a 96–well Microwell Nunclon Delta Surface plate (Thermo Scientific Nunc; Cat No: 136101) at 5 × 10^4 cells per well.

[6] = system: Caco-2; test: In vitro cytotoxicity, WST-1; format: cell-based; details: Homo sapiens, 24 h exposure, read-out: IC50 values ± SEM
Description: as §1

[7] = system: HEL 299; test: In vitro cytotoxicity, WST-1; format: cell-based; details: Homo sapiens, 24 h exposure, read-out: IC50 values ± SEM
Description: as §1

[8] = system: Hep G2; test: In vitro cytotoxicity, WST-1; format: cell-based; details: Homo sapiens, HepG2; 24 h exposure; read-out: IC50 values ± SEM
Description: as §1

[9] = system: MCF7; test: In vitro cytotoxicity, WST-1; format: cell-based; details: Homo sapiens, 24 h exposure, read-out: IC50 values ± SEM
Description: as §1

[10] = system: S. pneumoniae D39; test: Minimum bactericidal concentration (MBC); format: cell-based; details: Streptococcus pneumoniae, 99.9% colony count reduction, read-out: MBC
[11] = S3 Table isolates, absence of FBS

## CCCCCCCCCC(=O)N[C@@H](Cc1c[nH]c2ccccc12)C(=O)N[C@H](CC(N)=O)C(=O)N[C@@H](CC(=O)O)C(=O)N[C@@H]1C(=O)NCC(=O)N[C@@H](CCCN)C(=O)N[C@@H](CC(=O)O)C(=O)N[C@H](C)C(=O)N[C@@H](CC(=O)O)C(=O)NCC(=O)N[C@H](CO)C(=O)N[C@@H]([C@H](C)CC(=O)O)C(=O)N[C@@H](CC(=O)c2ccccc2N)C(=O)O[C@@H]1C [Daptomycin, daptomycin]
[1]; 20 isolates
  MIC90: 2 µg/mL (≈ 1.23 µM)
[1]; [11]
  MIC50: 1 µg/mL (≈ 0.617 µM)
  MIC90: 2 µg/mL (≈ 1.23 µM)
  MIC range: 0.5 to 2 µg/mL
[1]; VRE 1 (49 FR), absence of FBS
  MIC: 1 µg/mL (≈ 0.617 µM)
[1]; VRE 2 (53 FR), absence of FBS
  MIC: 2 µg/mL (≈ 1.23 µM)
[1]; VRE 3 (55 FR), absence of FBS
  MIC: 2 µg/mL (≈ 1.23 µM)
[1]; VRE 4 (57 FR), absence of FBS
  MIC: 2 µg/mL (≈ 1.23 µM)
[1]; VRE5 (58 FR), absence of FBS
  MIC: 2 µg/mL (≈ 1.23 µM)
[1]; VRE 6 (59 FR), absence of FBS
  MIC: 2 µg/mL (≈ 1.23 µM)
[1]; VRE 7 (270 G), absence of FBS
  MIC: 1 µg/mL (≈ 0.617 µM)
[1]; VRE 8 (277 G), absence of FBS
  MIC: 0.5 µg/mL (≈ 0.309 µM)
[1]; VRE 9 (61 FR), absence of FBS
  MIC: 1 µg/mL (≈ 0.617 µM)
[1]; VRE 10 (62 FR), absence of FBS
  MIC: 2 µg/mL (≈ 1.23 µM)
[1]; VRE 11 (284 G), absence of FBS
  MIC: 0.5 µg/mL (≈ 0.309 µM)
[1]; VRE 12 (290 G), absence of FBS
  MIC: 1 µg/mL (≈ 0.617 µM)
[1]; VRE 13 (251 G), absence of FBS
  MIC: 0.5 µg/mL (≈ 0.309 µM)
[1]; VRE 14 (252 G), absence of FBS
  MIC: 1 µg/mL (≈ 0.617 µM)
[1]; VRE 15 (63 FR), absence of FBS
  MIC: 1 µg/mL (≈ 0.617 µM)
[1]; VRE 16 (60 FR), absence of FBS
  MIC: 2 µg/mL (≈ 1.23 µM)
[1]; VRE 17 (45 FR), absence of FBS
  MIC: 2 µg/mL (≈ 1.23 µM)
[1]; VRE 18 (69 W), absence of FBS
  MIC: 1 µg/mL (≈ 0.617 µM)
[1]; VRE 19 (70 W), absence of FBS
  MIC: 0.5 µg/mL (≈ 0.309 µM)
[1]; VRE 20 (78 W), absence of FBS
  MIC: 2 µg/mL (≈ 1.23 µM)

## Cc1ccc(/C=N/Nc2cc(N/N=C/c3ccc(C)cc3)nc(N)n2)cc1 [NCL195, 4,6-bis(2-((E)-4-methylbenzylidene)hydrazinyl)pyrimidin-2-amine]
[2]
  Effect on generated membrane potential: large reduction in the magnitude of the generated membrane potential
[3]; pH 2.0
  solubility: 3.1 to 6.3 µg/mL (≈ 8.62 to 17.5 µM)
[3]; pH 6.5
  solubility: < 1.6 µg/mL
[4]; human
  microsomal CLint at 0.4 μg/ml: < 7 µL/min/mg
  Predicted EH: <0.22
  Predicted CLblood: <5 mL/min/kg
  half-life at 0.4 μg/ml: > 4.12 h
[4]; mouse
  half-life at 0.4 μg/ml: > 4.12 h
  microsomal CLint at 0.4 μg/ml: < 7 µL/min/mg
  Predicted EH: <0.13
  Predicted CLblood: <16 mL/min/kg
[5]
  Effect on cell viability (real-time): no measurable effect on cell viability
[6]
  IC50: 12.8 ± 0.1 µg/mL (≈ 35.6 µM)
[7]
  IC50: 10.9 ± 0.2 µg/mL (≈ 30.3 µM)
[8]
  IC50: 12 ± 0.1 µg/mL (≈ 33.4 µM)
[9]
  IC50: 40.1 ± 0.2 µg/mL (≈ 112 µM)
[10]
  MBC: 8 µg/mL (≈ 22.3 µM)
[1]; 10% FBS versus no FBS
  Fold increase of MIC range in the presence of 10% FBS: 4 fold
[1]; 20 isolates
  MIC range: 2 to 4 µg/mL
[1]; S3 Table isolates, 10% FBS
  MIC50: 16 µg/mL (≈ 44.5 µM)
  MIC90: 32 µg/mL (≈ 89 µM)
  MIC range: 16 to 32 µg/mL
[1]; [11]
  MIC50: 2 µg/mL (≈ 5.56 µM)
  MIC90: 4 µg/mL (≈ 11.1 µM)
  MIC range: 2 to 4 µg/mL
[1]; VRE 1 (49 FR), 10% FBS
  MIC: 16 µg/mL (≈ 44.5 µM)
[1]; VRE 1 (49 FR), absence of FBS
  MIC: 4 µg/mL (≈ 11.1 µM)
[1]; VRE 2 (53 FR), 10% FBS
  MIC: 16 µg/mL (≈ 44.5 µM)
[1]; VRE 2 (53 FR), absence of FBS
  MIC: 2 µg/mL (≈ 5.56 µM)
[1]; VRE 3 (55 FR), 10% FBS
  MIC: 16 µg/mL (≈ 44.5 µM)
[1]; VRE 3 (55 FR), absence of FBS
  MIC: 2 µg/mL (≈ 5.56 µM)
[1]; VRE 4 (57 FR), 10% FBS
  MIC: 16 µg/mL (≈ 44.5 µM)
[1]; VRE 4 (57 FR), absence of FBS
  MIC: 2 µg/mL (≈ 5.56 µM)
[1]; VRE5 (58 FR), 10% FBS
  MIC: 32 µg/mL (≈ 89 µM)
[1]; VRE5 (58 FR), absence of FBS
  MIC: 4 µg/mL (≈ 11.1 µM)
[1]; VRE 6 (59 FR), 10% FBS
  MIC: 16 µg/mL (≈ 44.5 µM)
[1]; VRE 6 (59 FR), absence of FBS
  MIC: 4 µg/mL (≈ 11.1 µM)
[1]; VRE 7 (270 G), 10% FBS
  MIC: 32 µg/mL (≈ 89 µM)
[1]; VRE 7 (270 G), absence of FBS
  MIC: 4 µg/mL (≈ 11.1 µM)
[1]; VRE 8 (277 G), 10% FBS
  MIC: 32 µg/mL (≈ 89 µM)
[1]; VRE 8 (277 G), absence of FBS
  MIC: 4 µg/mL (≈ 11.1 µM)
[1]; VRE 9 (61 FR), 10% FBS
  MIC: 16 µg/mL (≈ 44.5 µM)
[1]; VRE 9 (61 FR), absence of FBS
  MIC: 4 µg/mL (≈ 11.1 µM)
[1]; VRE 10 (62 FR), 10% FBS
  MIC: 16 µg/mL (≈ 44.5 µM)
[1]; VRE 10 (62 FR), absence of FBS
  MIC: 4 µg/mL (≈ 11.1 µM)
[1]; VRE 11 (284 G), 10% FBS
  MIC: 16 µg/mL (≈ 44.5 µM)
[1]; VRE 11 (284 G), absence of FBS
  MIC: 4 µg/mL (≈ 11.1 µM)
[1]; VRE 12 (290 G), 10% FBS
  MIC: 16 µg/mL (≈ 44.5 µM)
[1]; VRE 12 (290 G), absence of FBS
  MIC: 2 µg/mL (≈ 5.56 µM)
[1]; VRE 13 (251 G), 10% FBS
  MIC: 16 µg/mL (≈ 44.5 µM)
[1]; VRE 13 (251 G), absence of FBS
  MIC: 2 µg/mL (≈ 5.56 µM)
[1]; VRE 14 (252 G), 10% FBS
  MIC: 32 µg/mL (≈ 89 µM)
[1]; VRE 14 (252 G), absence of FBS
  MIC: 2 µg/mL (≈ 5.56 µM)
[1]; VRE 15 (63 FR), 10% FBS
  MIC: 16 µg/mL (≈ 44.5 µM)
[1]; VRE 15 (63 FR), absence of FBS
  MIC: 2 µg/mL (≈ 5.56 µM)
[1]; VRE 16 (60 FR), 10% FBS
  MIC: 16 µg/mL (≈ 44.5 µM)
[1]; VRE 16 (60 FR), absence of FBS
  MIC: 2 µg/mL (≈ 5.56 µM)
[1]; VRE 17 (45 FR), 10% FBS
  MIC: 32 µg/mL (≈ 89 µM)
[1]; VRE 17 (45 FR), absence of FBS
  MIC: 2 µg/mL (≈ 5.56 µM)
[1]; VRE 18 (69 W), 10% FBS
  MIC: 16 µg/mL (≈ 44.5 µM)
[1]; VRE 18 (69 W), absence of FBS
  MIC: 2 µg/mL (≈ 5.56 µM)
[1]; VRE 19 (70 W), 10% FBS
  MIC: 16 µg/mL (≈ 44.5 µM)
[1]; VRE 19 (70 W), absence of FBS
  MIC: 2 µg/mL (≈ 5.56 µM)
[1]; VRE 20 (78 W), 10% FBS
  MIC: 32 µg/mL (≈ 89 µM)
[1]; VRE 20 (78 W), absence of FBS
  MIC: 4 µg/mL (≈ 11.1 µM)
